The text below walks through data of patent US9861640B2, “Medicament for treatment of Alzheimer's disease” (KEMPHYS LTD., priority 2013, dated 2018).

Holding throughout (format): in vivo, mouse
For experiment [1], the system named is CD36. Nature of the experiment: Immunoblot of CD36 in brains of APP23 mice. Particulars: Am80 0.5 and/or HX630 5 mg/kg/d, day 18, whole-cell extracts. Here is the method:
(§1) APP23 mice begin forming amyloid deposits when they are 6 months old, but memory deficits in the MWM test appear quite early (before 3 months of age). Here, we used 8.5-month-old male APP23 mice and their WT littermates (C57BL/6J). We used stratified random sampling to divide mice (four to six per cage) into four groups to equalize the mean body weight of the study groups: mice given 0.5 mg/kg/d Am80, those given 5 mg/kg/d HX630, those given the mixture of 0.5 mg/kg/d Am80 and 5 mg/kg/d HX630, and those given the vehicle. Am80 and HX630 were suspended in 0.5% (w/v) carboxymethylcellulose solution and were orally administered to mice at 0.5 mg/kg (Am80) or 5 mg/kg (HX630) for 17 consecutive days (once daily at 18:00). Control animals received the same volume of 0.5% (w/v) carboxymethylcellulose solution orally, without the other compounds. We set the 0.5 mg/kg/d dose for Am80 on the basis that this had been found effective in other in vivo studies, such as those by Kawahara et al. and Ishido and Shudo [37]. Higher doses of Am80 (3 mg/kg/d and 6 mg/kg/d) were also orally administered to mice for 17 consecutive days. Animals were weighed once a week. Mice were subjected to behavioral testing on days 15-18 of the first oral administration of the compounds (at 19:00-23:00). On days 15-17 (not day 18), animals received the compounds at 24:00, after behavioral testing. […]
(In general: A western blot detects proteins with antibodies after separation by electrophoresis.)

The test system of experiment [2] is Ide mRNA. Nature of the experiment: Quantitative RT-PCR of Ide mRNA in brains of APP23 mice. Particulars: day 18, vs vehicle, Am80/HX630 P<0.05, HX630 P=0.062 (not significant). Here is the method: as §1, with “[37].” for “[37]. Higher doses of Am80 (3 mg/kg/d and 6 mg/kg/d) were also orally administered to mice for 17 consecutive days. Animals were weighed once a week. Mice were subjected to behavioral testing on days 15-18 of the first oral administration of the compounds (at 19:00-23:00). On days 15-17 (not day 18), animals received the compounds at 24:00, after behavioral testing.”
Total RNA from the cerebral hemispheres, hippocampus, or MG5 cells was prepared by guanidinium thiocyanate-phenol-chloroform extraction. […] Quantitative real-time PCRs were carried out by using the LightCycler 1.5 system (Roche, Mannheim, Germany) with the FastStart DNA Master SYBR Green I LightCycler kit (Roche). […]

The test system of experiment [3] is IL-4. Nature of the experiment: IL-4 sandwich ELISA of hippocampus, correlation with MWM. Particulars: APP23 mice; day 18; P=0.096 (HX630), P=0.087 (Am80/HX630). On the technique in general: In an ELISA, binding on a coated surface is turned into a signal by an enzyme label.

As for `CN1c2ccccc2N=C(c2ccc(C(=O)O)cc2)c2cc3c(cc21)C(C)(C)CCC3(C)C` [HX630, 4-[5H-2,3-(2,5dimethyl-2,5-hexano)-5-methyldibenzo[b,e]-diazepin-11-yl]benzoic acid], the “CD36 protein level in brain (immunoblot)” value in experiment [1] is “increased”. Also, the “Ide mRNA level in brain” value in experiment [2] is listed as “slight increase”. Moreover, the “hippocampal IL-4 levels” value in experiment [3] is on record as “the increase was statistically insignificant”.
